The values below come from publication PMC4049093 (ChemMedChem, 2012).

By Ki is commonly meant the equilibrium dissociation constant of an inhibitor or competing ligand from its target.

Each structure is given as a SMILES string. Entries after “also recorded” stand apart in the source; their conditions may differ. Like-named read-outs stand apart in the source and are kept apart here.

For data set [1], the target named is human cannabinoid CB1 receptor (Homo sapiens, UniProt P21554). In words: biochemical. The note with it: for CB1/CB2 selectivity ratio CB1 versus CB2: from Ki values at hCB1 and hCB2. It counts as binding.
The target in data set [2] is human cannabinoid CB2 receptor (Homo sapiens, UniProt P34972). In words: Competitive radioligand binding, displacement of [3H]-CP55,940 from hCB2. A general note: Loss of bound radioactivity is the signal in a displacement assay; it reports binding, not function.
The test system of another data set is mouse cannabinoid tetrad. The data set can be described thus: Mouse cannabinoid tetrad. The note with it: mice, i.p.; WIN 2.5 and 5 mg/kg, 13a 5 and 10 mg/kg.
For another data set, the system named is mouse vas deferens. The data set can be described thus: Isolated tissue assay: electrically evoked contractions of mouse vas deferens. Particulars: 10^−7–1.8 × 10^−5 M, concentration-response curves.

Sequence of human cannabinoid CB1 receptor (P21554 whole entry): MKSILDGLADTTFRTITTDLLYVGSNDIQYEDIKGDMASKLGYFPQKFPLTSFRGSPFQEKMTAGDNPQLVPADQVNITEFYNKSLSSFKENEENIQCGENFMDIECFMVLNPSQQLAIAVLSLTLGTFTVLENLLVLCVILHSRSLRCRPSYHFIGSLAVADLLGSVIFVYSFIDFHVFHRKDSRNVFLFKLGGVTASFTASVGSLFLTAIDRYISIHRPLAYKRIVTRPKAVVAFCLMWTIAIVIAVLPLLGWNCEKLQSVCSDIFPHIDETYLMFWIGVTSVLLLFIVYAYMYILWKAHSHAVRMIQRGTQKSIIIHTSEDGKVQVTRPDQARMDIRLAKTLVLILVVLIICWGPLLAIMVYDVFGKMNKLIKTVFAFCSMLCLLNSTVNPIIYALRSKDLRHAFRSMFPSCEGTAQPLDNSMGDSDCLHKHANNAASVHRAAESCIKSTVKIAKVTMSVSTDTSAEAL
Sequence of human cannabinoid CB2 receptor (P34972 whole entry): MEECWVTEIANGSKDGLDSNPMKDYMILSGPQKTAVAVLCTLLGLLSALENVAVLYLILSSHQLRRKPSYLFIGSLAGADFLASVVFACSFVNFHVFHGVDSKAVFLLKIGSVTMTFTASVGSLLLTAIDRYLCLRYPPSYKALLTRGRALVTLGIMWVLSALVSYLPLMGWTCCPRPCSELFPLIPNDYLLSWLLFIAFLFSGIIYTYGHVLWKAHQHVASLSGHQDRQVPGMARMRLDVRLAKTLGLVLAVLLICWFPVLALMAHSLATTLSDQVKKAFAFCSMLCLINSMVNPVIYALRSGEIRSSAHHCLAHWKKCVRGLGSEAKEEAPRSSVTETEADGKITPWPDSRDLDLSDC

As to `CCCCCc1cc(O)c2c(c1)OC(C)(C)c1cnn(C)c1-2` [Compound 8a, 1,4-Dihydro-1,4,4-trimethyl-7-pentylchromeno[4,3-c]pyrazol-9-ol], in data set [1], the “Binding to CB1 receptor (in words)” value is reported as “failed to bind to either CB1 or CB2 receptors”, the Ki turned out to be 4.7 ± 1.2 µM and the “CB1/CB2 selectivity ratio CB1 versus CB2” value was 0.7. In data set [2], the “Binding to CB2 receptor (in words)” value is recorded as “failed to bind to either CB1 or CB2 receptors” and the inhibitory constant (Ki) stood at 3.46 ± 1 µM.

As to `CCCCCCC(C)(C)c1cc(O)c2c(c1)OC(C)(C)c1cnn(-c3ccc(Cl)cc3Cl)c1-2` [Compound 15a, 1-(2,4-Dichlorophenyl)-7-(1,1-dimethylheptyl)-1,4-dihydro-4,4-dimethylchromeno[4,3-c]pyrazol-9-ol], the “CB1/CB2 selectivity ratio CB1 versus CB2” value in data set [1] is above 1000. The compound also displayed a Ki in data set [2] above 40 µM.

`CCCCCCC(C)(C)c1cc(O)c2c(c1)OC(C)(C)c1cn(CC)nc1-2` [Compound 13b, 7-(1,1-dimethylheptyl)-2-ethyl-2,4-dihydro-4,4-dimethylchromeno[4,3-c]pyrazol-9-ol]: in data set [1], the “CB1/CB2 selectivity ratio CB1 versus CB2” value is given as above 1000. Further, in data set [2], the Ki is above 40 µM.

Regarding `CCCCCCC(C)(C)c1cc(O)c2c(c1)OC(C)(C)c1cnn(-c3ccc(Cl)c(Cl)c3)c1-2` [Compound 14a, 1-(3,4-Dichlorophenyl)-7-(1,1-dimethylheptyl)-1,4-dihydro-4,4-dimethylchromeno[4,3-c]pyrazol-9-ol], in data set [1], the “Binding to CB1 receptor (in words)” value is recorded as “reduced affinity for both receptors; also recorded: loss of affinity for CB1” and the “CB1/CB2 selectivity ratio CB1 versus CB2” value stood at 0.5. The “Binding to CB2 receptor (in words)” value in data set [2] was “reduced affinity for both receptors; also recorded: moderate affinity for CB2 receptor”.

For `CCCCCCC(C)(C)c1cc(O)c2c(c1)OC(C)(C)c1cn(C)nc1-2` [Compound 12b, 7-(1,1-Dimethylheptyl)-2,4-dihydro-2,4,4-trimethylchromeno[4,3-c]pyrazol-9-ol], the “CB1/CB2 selectivity ratio CB1 versus CB2” value in data set [1] is reported as above 1000. In data set [2], this compound showed a Ki above 40 µM.

For the compound `CCCCCCC(C)(C)c1cc(O)c2c(c1)OC(C)(C)c1cnn(CC)c1-2` [Compound 13a, 7-(1,1-Dimethylheptyl)-1-ethyl-1,4-dihydro-4,4-dimethylchromeno[4,3-c]pyrazol-9-ol], in the data set on mouse cannabinoid tetrad, the “Antinociception in the hot-plate test (cannabinoid tetrad)” value is “did not modify any of the signs of cannabinoid tetrad”, the “Catalepsy on a ring (cannabinoid tetrad)” value is reported as “did not modify any of the signs of cannabinoid tetrad”, the “Locomotor activity on the rota-rod test (cannabinoid tetrad)” value was “did not modify any of the signs of cannabinoid tetrad” and the “Rectal temperature / hypothermia (cannabinoid tetrad)” value is given as “did not modify any of the signs of cannabinoid tetrad”. Moreover, the “Effect on electrically evoked contractile response of mouse vas deferens” value with mouse vas deferens was “highest effectiveness; also recorded: most effective cannabinoid agonist”. Moreover, the “CB1/CB2 selectivity ratio CB1 versus CB2” value in data set [1] is above 1000. The same compound registered an inhibitory constant (Ki) in data set [2] above 40 µM.

With `CCCCCc1cc(O)c2c(c1)OC(C)(C)c1cn(C)nc1-2` [Compound 8b, 2,4-dihydro-2,4,4-trimethyl-7-pentylchromeno[4,3-c]pyrazol-9-ol], in data set [1], the “Binding to CB1 receptor (in words)” value was “failed to bind to either CB1 or CB2 receptors” and the Ki turned out to be 22.1 ± 1.41 µM. In data set [2], the “Binding to CB2 receptor (in words)” value is listed as “failed to bind to either CB1 or CB2 receptors” and the Ki is above 40 µM.

For the compound `CCCCCc1cc(O)c2c(c1)OC(C)(C)c1cnn(CC)c1-2` [Compound 9a, 1-Ethyl-1,4-dihydro-4,4-dimethyl-7-pentylchromeno[4,3-c]pyrazol-9-ol], in data set [1], the “Binding to CB1 receptor (in words)” value is reported as “failed to bind to either CB1 or CB2 receptors” and affinity was put at a Ki of 9.61 µM. For the same compound, in data set [2], the “Binding to CB2 receptor (in words)” value is recorded as “failed to bind to either CB1 or CB2 receptors” and the Ki is above 40 µM.

For the compound `CCCCCc1cc(O)c2c(c1)OC(C)(C)c1cnn(-c3ccc(Cl)c(Cl)c3)c1-2` [Compound 10a, 1-(3,4-Dichlorophenyl)-1,4-dihydro-4,4-dimethyl-7-pentylchromeno[4,3-c]pyrazol-9-ol], in data set [1], the “Binding to CB1 receptor (in words)” value is “binds weakly to the CB1 cannabinoid receptor” and the Ki turned out to be 0.607 ± 0.151 µM. The same compound yielded a Ki in data set [2] above 40 µM.

As for `CCCCCc1cc(O)c2c(c1)OC(C)(C)c1cn[nH]c1-2` [Compound 7, 1,4-Dihydro-4,4-dimethyl-7-pentylchromen[4,3-c]pyrazol-9-ol], in data set [1], the “Binding to CB1 receptor (in words)” value is “failed to bind to either CB1 or CB2 receptors”. Also, the “CB1/CB2 selectivity ratio CB1 versus CB2” value in data set [1] is on record as 0.5. The Ki in data set [1] (read-out: hCB1 Ki, [3H]-CP55940 radioligand, membranes of transfected HEK293 EBNA cells, mean ± SEM of at least three experiments) came out at 4.1 ± 0.8 µM; in data set [2] (read-out: hCB2 Ki, [3H]-CP55940 radioligand, membranes of transfected HEK293 EBNA cells, mean ± SEM of at least three experiments) it was 2.01 ± 0.5 µM. Also, the “Binding to CB2 receptor (in words)” value in data set [2] was “failed to bind to either CB1 or CB2 receptors”.

For the compound `CCCCCCC(C)(C)c1cc(O)c2c(c1)OC(C)(C)c1cn[nH]c1-2` [Compound 11, 1,4-Dihydro-4,4-dimethyl-7-(1,1-dimethylheptyl)chromeno[4,3-c]pyrazol-9-ol], the “CB1/CB2 selectivity ratio CB1 versus CB2” value in data set [1] is given as above 1000. The compound also had a Ki in data set [2] above 40 µM.

On to `Cc1c(C(=O)c2cccc3ccccc23)c2cccc3c2n1[C@H](CN1CCOCC1)CO3` [WIN55,212-2, reference compound], for which, in the data set with mouse cannabinoid tetrad, the “Antinociception in the hot-plate test (cannabinoid tetrad)” value is recorded as “induced antinociceptive effect in the hot-plate test”, the “Catalepsy on a ring (cannabinoid tetrad)” value is recorded as “catalepsy”, the “Locomotor activity on the rota-rod test (cannabinoid tetrad)” value is “reduction of the locomotor activity” and the “Rectal temperature / hypothermia (cannabinoid tetrad)” value was “hypothermia”.

Consider `CCCCCc1cc(O)c2c(c1)OC(C)(C)c1cn(CC)nc1-2` [Compound 9b, 2-Ethyl-2,4-dihydro-4,4-dimethyl-7-pentylchromeno[4,3-c]pyrazol-9-ol], for which, in data set [1], the “Binding to CB1 receptor (in words)” value is reported as “failed to bind to either CB1 or CB2 receptors” and the inhibition constant (Ki) was above 40 µM. In addition, in data set [2], the “Binding to CB2 receptor (in words)” value is recorded as “failed to bind to either CB1 or CB2 receptors” and the Ki was determined as 4.45 ± 1.01 µM.
